Data on three compounds can be found in publication PMC5619819, “A highly-sensitive high throughput assay for dynamin's basal GTPase activity” (PLoS ONE, 2017).

As usually defined, the IC50 is the concentration that inhibits the measured activity by half.

Values joined by “and” are separate entries in the source; they are usually repeats but may differ in a detail not shown here. Equal entries are not always repeated. “Also recorded” adds a separate entry of the source.

The test system of one test is dynamin. The following applies: low salt, 20 nM dynamin; read-out: IC50, stimulated GTPase activity, sonicated PS liposomes; cited from earlier work.
Test [1] has as its target T1, Dynamin-1 (Dyn1) (Homo sapiens, UniProt Q05193).
T1 construct: made in house; host or cells: Sf9 (Spodoptera frugiperda) insect cells
T1 sequence (Q05193 1-864): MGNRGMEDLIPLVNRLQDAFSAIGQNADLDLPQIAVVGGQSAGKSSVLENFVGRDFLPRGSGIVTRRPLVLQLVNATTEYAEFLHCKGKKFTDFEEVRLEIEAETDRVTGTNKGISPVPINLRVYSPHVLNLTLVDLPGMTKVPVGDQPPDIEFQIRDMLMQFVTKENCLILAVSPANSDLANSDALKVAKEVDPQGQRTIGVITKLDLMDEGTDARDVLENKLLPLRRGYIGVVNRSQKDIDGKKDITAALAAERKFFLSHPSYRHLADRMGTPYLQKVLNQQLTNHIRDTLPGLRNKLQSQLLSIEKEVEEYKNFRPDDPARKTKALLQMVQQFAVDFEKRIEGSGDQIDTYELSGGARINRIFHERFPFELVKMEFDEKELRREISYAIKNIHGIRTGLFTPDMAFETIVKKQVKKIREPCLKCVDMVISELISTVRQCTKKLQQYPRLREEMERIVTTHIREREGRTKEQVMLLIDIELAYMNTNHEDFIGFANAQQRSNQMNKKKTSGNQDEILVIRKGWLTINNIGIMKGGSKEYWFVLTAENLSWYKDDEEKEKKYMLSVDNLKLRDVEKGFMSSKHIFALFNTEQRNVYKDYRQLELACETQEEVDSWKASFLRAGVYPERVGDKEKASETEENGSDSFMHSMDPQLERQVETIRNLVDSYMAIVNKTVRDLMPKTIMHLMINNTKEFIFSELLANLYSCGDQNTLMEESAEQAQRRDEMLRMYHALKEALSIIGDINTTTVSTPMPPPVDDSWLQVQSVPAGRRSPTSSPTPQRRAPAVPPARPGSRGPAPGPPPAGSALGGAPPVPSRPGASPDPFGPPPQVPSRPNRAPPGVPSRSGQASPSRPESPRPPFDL
The test is described as follows: Transcreener GDP fluorescence polarization assay, basal GTPase activity. The note with it: for inhibition of basal GTPase activity (result in words): high salt (150 mM KCl), inhibitor 1 nM to 100 μM. The format is biochemical. Here is the method:
Dynamin-1 (Dyn1) was expressed in Sf9 (Spodoptera frugiperda, GIBCO-BRL, Gaithersburg, MD) insect cells and purified by affinity chromatography, as previously described. Nucleotide-free protein aliquots were stored in assay buffer containing 20 mM HEPES, 150 mM KCl, 1 mM EDTA, 1 mM EGTA and 1 mM DTT at pH 7.4. The aliquots were flash frozen in liquid nitrogen and stored in -80°C in 5% v/v glycerol. Prior to running assays, frozen aliquots of Dyn1 were thawed and centrifuged at 100,000 g for 15 minutes to remove any aggregates. Dyn1 concentration was determined by measuring its absorbance at 280 nm with a UV/Vis spectrophotometer (Beckman Coulter Inc.) using a molar absorptivity coefficient of 73,800 M^-1 cm^-1.
The Transcreener® GDP FP (BellBrook Labs) assay is an immune-competition assay based on a mouse monoclonal antibody that selectively binds Alexa633-conjugated GDP over GTP. The preformed Alexa633-GDP antibody complex is added at the end of the reaction, and the GDP generated displaces bound Alexa633 fluorescent tracer, resulting in a decrease in its far-red fluorescence polarization (FP). The assay detects GDP production with high sensitivity at low substrate concentrations and has been used to develop an HTS compatible assay for the enzymatic activity of ARFGAP [20]. Stocks of 5 mM GTP, 10x Stop & Detect Buffer B, 400 nM GDP Alexa633 Tracer, and 3100 μg/mL GDP antibody were purchased from BellBrook Labs (Madison, WI). Assays were performed in Corning 384-well plates at room temperature.
All assays were conducted in the endpoint format, which measures total GDP production after 60 minutes of incubation at room temperature. […] The plate was then read for fluorescence polarization in millipolarization units (mP) using an EnVision multi-modal microplate reader (PerkinElmer, Inc.). […]
For the confirmation screen and dose response curves, the data were analyzed by normalizing the sample GDP released to the control GDP released using the following equation: normalizedGTPaseactivity=sampleGDPreleased/controlGDPreleased×100 (4)
(In general: In fluorescence polarisation assays a small probe gives low polarisation when free and higher when bound to something large.)

Test [2] has as its system triple dynamin-1, 2, and 3 knockout cells. More on the design: method as in PMID 24046449. The following applies: cited from earlier work.
Test [3] addresses T1, Dynamin-1 (Dyn1). The test is described as follows: Lipid nanotube (NT)-stimulated GTPase activity, malachite green assay. Format: biochemical. The note with it: 100 nM Dyn1, 300 μM lipid nanotubes, 25 μM GTP, 37°C; read-out: IC50, inhibition of NT-stimulated GTPase activity of Dyn1. Here is the method:
The lipid nanotube (NT)-stimulated malachite green assays were performed in 96-well plates at 37°C. The final reaction consisted of 100 nM Dyn1, 25 μM GTP, and 300 μM lipid nanotubes. The assay and reagent preparations were performed according to our published protocol. All general chemicals were purchased from Sigma-Aldrich (St. Louis, MO). Compounds tested in the malachite green assay were purchased from Chembridge and ChemDiv (both located in San Diego, CA).
Compound 24 was compared with the two commercially available dynamin inhibitors, Dynasore and Dyngo-4a, in a dose-response assay measuring inhibition of basal GTPase activity under high salt (150 mM KCl) conditions. The concentration of inhibitors ranged from 1 nM to 100 μM. […] Therefore, to more closely parallel previous studies we tested both commercial inhibitors in comparison to compound 24 for their effects on dynamin’s stimulated GTPase activity. Assays were performed in the presence of PI(4,5)P2-containing lipid nanotubes (NT), whose diameter (~ 20 nm) resembles the neck of an invaginated coated pit, using the malachite green assay.

Regarding `O=C(N/N=C/c1ccc(O)c(O)c1)c1cc2ccccc2cc1O` [Dynasore], the IC50 with dynamin was 0.4 µM; on Dynamin-1 (Dyn1) [3], 83.5 µM. At Dynamin-1 (Dyn1) [1], the “inhibition of basal GTPase activity (result in words)” value is on record as “do not appear to inhibit basal GTPase activity even at high concentrations; also recorded: neither was able to inhibit basal GTPase activity”. Further, the “inhibition of endocytosis (result in words)” value in test [2] is listed as “continue to inhibit endocytosis”.

Take `O=C(N/N=C/c1cc(O)c(O)cc1O)c1cc2ccccc2cc1O` [Dyngo-4a]: the IC50 in the test on dynamin was 12 µM; at Dynamin-1 (Dyn1) [3] it was 45.4 µM. Further, the “inhibition of basal GTPase activity (result in words)” value at Dynamin-1 (Dyn1) [1] is “do not appear to inhibit basal GTPase activity even at high concentrations; also recorded: neither was able to inhibit basal GTPase activity”. In addition, in test [2], the “inhibition of endocytosis (result in words)” value is on record as “continue to inhibit endocytosis”.

Regarding `CN(C)c1ccc(/C=C/C=C2/SC(=S)NC2=O)cc1` [compound 24], the IC50 is 0.58 µM and ~0.6 µM on Dynamin-1 (Dyn1) [1] (50 nM Dyn1, 10 μM GTP, 60 min, room temperature, 11-point dose response 1 nM to 100 μM, read-out: IC50, inhibition of basal GTPase activity of Dyn1); 6.4 µM and ~6 µM on Dynamin-1 (Dyn1) [3].
